Test results from ChEMBL document CHEMBL5291721, “A preclinical secondary pharmacology resource illuminates target-adverse drug reaction associations of marketed drugs” (Nat Commun, 2023).
Values belong to the compound of their own block, whether it stands above or below them.

Key:
[1] = target: T1, 5-hydroxytryptamine receptor 1A (Homo sapiens, UniProt P08908)
T1 sequence (P08908 whole entry): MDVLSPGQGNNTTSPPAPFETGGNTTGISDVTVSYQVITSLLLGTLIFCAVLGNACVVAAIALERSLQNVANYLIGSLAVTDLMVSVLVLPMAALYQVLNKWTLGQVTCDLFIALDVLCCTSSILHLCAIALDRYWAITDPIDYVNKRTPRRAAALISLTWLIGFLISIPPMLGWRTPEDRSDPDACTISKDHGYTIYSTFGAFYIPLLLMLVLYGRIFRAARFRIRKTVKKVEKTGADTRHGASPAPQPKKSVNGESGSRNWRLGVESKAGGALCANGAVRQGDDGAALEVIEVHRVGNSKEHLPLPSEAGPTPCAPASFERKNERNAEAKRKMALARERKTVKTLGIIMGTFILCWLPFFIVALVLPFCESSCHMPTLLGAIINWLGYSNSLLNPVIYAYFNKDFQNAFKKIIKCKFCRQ

D(1A) dopamine receptor = D(1A) dopamine receptor (Homo sapiens, UniProt P21728)
Chain of D(1A) dopamine receptor (P21728 whole entry): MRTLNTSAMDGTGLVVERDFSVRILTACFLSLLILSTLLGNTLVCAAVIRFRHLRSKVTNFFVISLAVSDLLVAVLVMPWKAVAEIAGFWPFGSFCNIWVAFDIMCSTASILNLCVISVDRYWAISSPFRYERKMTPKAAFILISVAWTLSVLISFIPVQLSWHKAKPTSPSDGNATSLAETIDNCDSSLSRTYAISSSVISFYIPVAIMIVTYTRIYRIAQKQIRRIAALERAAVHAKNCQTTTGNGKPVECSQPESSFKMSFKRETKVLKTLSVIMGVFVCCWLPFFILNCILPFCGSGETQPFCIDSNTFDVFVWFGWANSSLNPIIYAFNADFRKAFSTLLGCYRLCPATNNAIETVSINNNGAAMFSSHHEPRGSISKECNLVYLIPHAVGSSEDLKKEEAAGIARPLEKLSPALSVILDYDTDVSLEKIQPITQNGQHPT

Bile acid receptor [2] = target: T2, Bile acid receptor (Homo sapiens, UniProt Q96RI1); type: functional
T2 sequence (Q96RI1 whole entry): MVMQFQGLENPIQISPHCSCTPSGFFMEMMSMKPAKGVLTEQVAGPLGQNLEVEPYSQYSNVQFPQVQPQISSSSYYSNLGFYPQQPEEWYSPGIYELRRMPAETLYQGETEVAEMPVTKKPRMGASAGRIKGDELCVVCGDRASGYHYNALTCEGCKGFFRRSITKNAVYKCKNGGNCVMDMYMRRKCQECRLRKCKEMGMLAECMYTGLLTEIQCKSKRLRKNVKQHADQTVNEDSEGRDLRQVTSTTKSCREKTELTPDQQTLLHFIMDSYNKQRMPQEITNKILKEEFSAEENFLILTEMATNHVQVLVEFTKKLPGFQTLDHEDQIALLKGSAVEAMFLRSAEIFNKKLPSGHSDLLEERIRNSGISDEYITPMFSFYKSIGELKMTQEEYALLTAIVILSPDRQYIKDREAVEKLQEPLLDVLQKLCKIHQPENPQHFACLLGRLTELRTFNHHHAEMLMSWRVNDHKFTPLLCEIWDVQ

Bile acid receptor [3] = target: T2, Bile acid receptor; type: functional; remark: listed apart in the source
Bile acid receptor [4] = target: T2, Bile acid receptor; type: functional; remark: listed apart in the source
[5] = target: 5-hydroxytryptamine receptor 2B (Homo sapiens, UniProt P41595)
Chain of 5-hydroxytryptamine receptor 2B (P41595 whole entry): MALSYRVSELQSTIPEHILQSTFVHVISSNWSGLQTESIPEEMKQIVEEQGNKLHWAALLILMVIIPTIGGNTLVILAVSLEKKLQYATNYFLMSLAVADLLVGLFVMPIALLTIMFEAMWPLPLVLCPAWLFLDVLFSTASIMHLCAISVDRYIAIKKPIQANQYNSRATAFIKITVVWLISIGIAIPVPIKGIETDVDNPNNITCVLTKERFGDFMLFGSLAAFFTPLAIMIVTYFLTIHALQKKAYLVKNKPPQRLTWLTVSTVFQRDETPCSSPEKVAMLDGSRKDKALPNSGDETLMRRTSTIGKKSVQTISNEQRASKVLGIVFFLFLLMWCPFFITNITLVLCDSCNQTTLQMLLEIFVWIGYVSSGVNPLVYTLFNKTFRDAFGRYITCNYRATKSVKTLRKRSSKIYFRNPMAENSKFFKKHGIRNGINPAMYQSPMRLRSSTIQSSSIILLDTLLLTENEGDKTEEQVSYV
Also: assay procedure not described here.

Compound: COc1cc2nccc(Oc3ccc(NC(=O)C4(C(=O)Nc5ccc(F)cc5)CC4)cc3)c2cc1OC [CABOZANTINIB]
AC50 [1]: > 30 µM | AC50 (D(1A) dopamine receptor): > 30 µM

AC50 (Bile acid receptor [2]): > 30 µM | AC50 (Bile acid receptor [3]): > 30 µM | AC50 (Bile acid receptor [4]): > 10 µM
Compound: CC(C(=O)O)c1ccc2c(c1)[nH]c1ccc(Cl)cc12 (stereo unspecified) [CARPROFEN]

AC50 [5]: 0.976 µM
Compound: C=C[C@H]1C[N@@]2CC[C@H]1C[C@@H]2[C@@H](O)c1ccnc2ccc(OC)cc12 [QUINIDINE]
